# Test results as given in patent US11332459B2 (TEIJIN PHARMA LIMITED, priority 2017, dated 2022).
# Where a name gives a salt, the structure may show the parent alone.
# Biological target: T1, human TRPC6 (Homo sapiens, UniProt Q9Y210)
# T1 construct: expressed in transfected cells
# T1 sequence (Q9Y210 1-931): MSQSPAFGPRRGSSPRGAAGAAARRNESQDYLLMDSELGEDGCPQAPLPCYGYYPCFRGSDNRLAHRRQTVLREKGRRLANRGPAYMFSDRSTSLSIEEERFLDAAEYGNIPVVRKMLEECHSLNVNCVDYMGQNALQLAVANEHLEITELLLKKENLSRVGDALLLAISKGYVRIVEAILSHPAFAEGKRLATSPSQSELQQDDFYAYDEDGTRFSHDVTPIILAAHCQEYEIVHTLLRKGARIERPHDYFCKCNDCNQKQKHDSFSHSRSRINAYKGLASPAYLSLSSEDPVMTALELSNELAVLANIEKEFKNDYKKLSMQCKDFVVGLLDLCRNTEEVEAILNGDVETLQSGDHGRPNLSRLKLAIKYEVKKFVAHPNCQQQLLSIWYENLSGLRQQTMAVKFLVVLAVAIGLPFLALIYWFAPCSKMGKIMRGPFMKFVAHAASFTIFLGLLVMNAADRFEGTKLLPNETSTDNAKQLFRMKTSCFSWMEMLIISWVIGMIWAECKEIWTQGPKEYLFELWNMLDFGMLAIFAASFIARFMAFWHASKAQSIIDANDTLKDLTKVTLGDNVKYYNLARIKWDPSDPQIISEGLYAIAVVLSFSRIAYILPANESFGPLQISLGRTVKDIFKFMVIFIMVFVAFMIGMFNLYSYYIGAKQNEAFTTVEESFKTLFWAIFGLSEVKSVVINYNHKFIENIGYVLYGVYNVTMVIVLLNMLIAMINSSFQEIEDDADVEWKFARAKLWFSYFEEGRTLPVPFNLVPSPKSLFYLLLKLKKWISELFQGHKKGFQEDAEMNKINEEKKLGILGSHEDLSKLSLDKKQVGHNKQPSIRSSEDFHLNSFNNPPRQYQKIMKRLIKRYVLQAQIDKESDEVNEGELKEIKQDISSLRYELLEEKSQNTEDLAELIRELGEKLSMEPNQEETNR
# Test: TRPC6 calcium flux assay (FLIPR, OAG-stimulated calcium influx)
# Type: cell-based
# Conditions: HEK293 cells stably transfected with human TRPC6, read-out: hTRPC6 Potency
# In short: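 IC50 derived by plotting background-corrected peak fluorescence (180 s window, normalized to OAG-triggered signal vs buffer) against dose. Stable human TRPC6 HEK293 line was dye-loaded, exposed to compound 25 min, then challenged with 50 uM final OAG in 2 mM Ca2+ HEPES buffer pH 7.2, 0.5% DMSO.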
row,IC50,SMILES
1,2.04 nM,"N[C@H]1CCCN(c2nc3ccccc3n2Cc2ccc(Cl)cc2)C1 [Example 316, (S)-1-(1-(4-chlorobenzyl)-1H-benzo[d]imidazol-2-yl)piperidin-3-amine hydrochloride]"
2,> 3750 nM,"N#Cc1ccc(Cn2c(N3CCC[C@@](N)(C(N)=O)C3)nc3ccccc32)nc1 [Example 102, (S)-3-amino-1-(1-((5-cyanopyridin-2-yl)methyl)-1H-benzo[d]imidazol-2-yl)piperidine-3-carboxamide]"
3,16500 nM,"N#Cc1cccc(Cn2c(N3CCC[C@@H](N)C3)nc3ccccc32)c1 [Example 400, (R)-3-((2-(3-aminopiperidin-1-yl)-1H-benzo[d]imidazol-1-yl)methyl)benzonitrile]"
4,8.65 nM,"N[C@H]1CCCN(c2nc3ccccc3n2Cc2ccc(-c3ncon3)cc2)C1 [Example 369, (S)-1-(1-(4-(1,2,4-oxadiazol-3-yl)benzyl)-1H-benzo[d]imidazol-2-yl)piperidin-3-amine]"
5,1430 nM,"Cn1ncc2c(Cn3c(N4CC[C@@H](F)[C@H](N)C4)nc4cc(F)c(F)cc43)cccc21 [Example 259, (3R,4R)-1-(5,6-difluoro-1-((1-methyl-1H-indazol-4-yl)methyl)-1H-benzimidazol-2-yl)-4-fluoro-3-piperidinamine]"
6,1.94 nM,"N#Cc1ccc(Cn2c(N3CC[C@@H](F)[C@H](N)C3)nc3cc(OC(F)F)ccc32)nc1 [Example 119, 6-((2-((3R,4R)-3-amino-4-fluoro-1-piperidinyl)-5-(difluoromethoxy)-1H-benzimidazol-1-yl)methyl)-3-pyridinecarbonitrile]"
7,5.07 nM,"C[C@H](c1ccc(C#N)cn1)n1c(N2CCC[C@H](N)C2)nc2ccccc21 [Example 295, 6-((R)-1-(2-((S)-3-aminopiperidin-1-yl)-1H-benzo[d]imidazol-1-yl)ethyl)nicotinonitrile hydrochloride]"
8,> 3750 nM,"CC(C)N(C)C(=O)C1CCN(C(=O)Cn2c(N3CC[C@@H](F)[C@H](N)C3)nc3cc(F)c(F)cc32)CC1 [Example 542, 1-(2-(2-((3R,4R)-3-amino-4-fluoropiperidin-1-yl)-5,6-difluoro-1H-benzo[d]imidazol-1-yl)acetyl)-N-isopropyl-N-methylpiperidine-4-carboxamide]"
9,294 nM,"COCCN(C)C(=O)Cn1c(N2CC[C@@H](F)[C@H](N)C2)nc2ccc(F)cc21 [Example 663, 2-(2-((3R,4R)-3-amino-4-fluoropiperidin-1-yl)-6-fluoro-1H-benzo[d]imidazol-1-yl)-N-(2-methoxyethyl)-N-methylacetamide]"
10,380 nM,"N#Cc1ccc(Cn2c(N3C[C@H]4C[C@@]4(CN)C3)nc3ccccc32)nc1 [Example 74, 6-((2-((1R,5S)-1-(aminomethyl)-3-azabicyclo[3.1.0]hexan-3-yl)-1H-benzo[d]imidazol-1-yl)methyl)nicotinonitrile hydrochloride]"
11,> 3750 nM,"N[C@@H]1CN(c2nc3cc(F)c(F)cc3n2CC(=O)N2CCNC(=O)C2)CC[C@H]1F [Example 528, 4-(2-(2-((3R,4R)-3-amino-4-fluoropiperidin-1-yl)-5,6-difluoro-1H-benzo[d]imidazol-1-yl)acetyl)piperazin-2-one]"
12,> 1750 nM,"C[C@@H](NC(=O)Cn1c(N2CC[C@@H](F)[C@H](N)C2)nc2ccc(F)cc21)c1ccccn1 [Example 674, 2-(2-((3R,4R)-3-amino-4-fluoropiperidin-1-yl)-6-fluoro-1H-benzo[d]imidazol-1-yl)-N-((R)-1-(pyridin-2-yl)ethyl)acetamide]"
13,1660 nM,N[C@@H]1CN(c2nc3ccc(F)cc3n2CC(=O)N(CC(F)(F)F)[C@@H]2CCOC2)CC[C@H]1F [Example 672]
14,49.6 nM,"N#Cc1ccc(Cn2c(N3CC[C@@H](O)[C@H](N)C3)nc3ccc(F)cc32)nc1 [Example 207, 6-((2-((3R,4R)-3-amino-4-hydroxypiperidin-1-yl)-6-fluoro-1H-benzo[d]imidazol-1-yl)methyl)nicotinonitrile]"
15,0.72 nM,"N#Cc1ccc(Cn2c(N3CC[C@@H](F)[C@H](N)C3)nc3ccccc32)nc1 [Example 38, 6-((2-((3R,4R)-3-amino-4-fluoropiperidin-1-yl)-1H-benzo[d]imidazol-1-yl)methyl)nicotinonitrile]"
16,68.7 nM,"C[C@H](c1ccc(Cl)cn1)n1c(N2CC[C@@H](F)[C@H](N)C2)nc2cc(F)c(F)cc21 [Example 217, (3R,4R)-1-(1-((R)-1-(5-chloropyridin-2-yl)ethyl)-5,6-difluoro-1H-benzo[d]imidazol-2-yl)-4-fluoropiperidin-3-amine hydrochloride]"
17,18.3 nM,"N[C@@H]1CN(c2nc3cc(F)c(F)cc3n2CC(=O)N2CC(F)(F)C2)CC[C@H]1F [Example 428, 2-(2-((3R,4R)-3-amino-4-fluoropiperidin-1-yl)-5,6-difluoro-1H-benzo[d]imidazol-1-yl)-1-(3,3-difluoroazetidin-1-yl)ethanone]"
18,> 3750 nM,"N[C@@H]1CN(c2nc3cc(F)c(F)cc3n2CC(=O)N(CCO)Cc2cccnc2)CC[C@H]1F [Example 655, 2-(2-((3R,4R)-3-amino-4-fluoropiperidin-1-yl)-5,6-difluoro-1H-benzo[d]imidazol-1-yl)-N-(2-hydroxyethyl)-N-(pyridin-3-ylmethyl)acetamide]"
19,> 3750 nM,"CN(CC(F)(F)F)C(=O)Cn1c(N2CC[C@H](N)C2)nc2ccc(F)cc21 [Example 489, (S)-2-(2-(3-aminopyrrolidin-1-yl)-6-fluoro-1H-benzo[d]imidazol-1-yl)-N-methyl-N-(2,2,2-trifluoroethyl)acetamide]"
20,39.3 nM,"N[C@@H]1CN(c2nc3cc(F)c(F)cc3n2CC(=O)N2CCCC(C(F)(F)F)C2)CC[C@H]1F (mixture of isomers) [Example 504, 2-(2-((3R,4R)-3-amino-4-fluoropiperidin-1-yl)-5,6-difluoro-1H-benzo[d]imidazol-1-yl)-1-(3-(trifluoromethyl)piperidin-1-yl)ethan-1-one]"
21,17000 nM,"CC(C)(C#N)c1ccc(Cn2c(N3CCC[C@@H](N)C3)nc3ccccc32)cc1 [Example 380, (R)-2-(4-((2-(3-aminopiperidin-1-yl)-1H-benzo[d]imidazol-1-yl)methyl)phenyl)-2-methylpropanenitrile]"
22,238 nM,"N[C@@H]1CN(c2nc3cc(F)c(F)cc3n2Cc2ccc(Cl)c(Cl)c2)CC[C@H]1F [Example 359, (3R,4R)-1-(1-(3,4-dichlorobenzyl)-5,6-difluoro-1H-benzimidazol-2-yl)-4-fluoro-3-piperidinamine]"
23,0.433 nM,"N#Cc1ccc(Cn2c(N3CCC(F)(F)[C@H](N)C3)nc3ccc(C(F)(F)F)cc32)nc1 [Example 108, 6-((2-((3R)-3-amino-4,4-difluoro-1-piperidinyl)-6-(trifluoromethyl)-1H-benzimidazol-1-yl)methyl)-3-pyridinecarbonitrile]"
24,7.79 nM,"CN[C@H]1CCCN(c2nc3ccccc3n2Cc2ccc(C#N)cn2)C1 [Example 116, 6-((2-((3S)-3-(methylamino)-1-piperidinyl)-1H-benzimidazol-1-yl)methyl)-3-pyridinecarbonitrile]"
25,> 3750 nM,"N#Cc1ccc(Cn2c(N3CCC4(CNC4)C3)nc3ccccc32)nc1 [Example 97, 6-((2-(2,6-diazaspiro[3.4]octan-6-yl)-1H-benzo[d]imidazol-1-yl)methyl)nicotinonitrile]"
